Assay results as given in publication PMC8296573, “Synthesis and Biological Evaluation of Fingolimod Derivatives as Antibacterial Agents” (ACS Omega, 2021).
Values after ≈ are worked out from the molar mass of the structure shown. Read-outs that look alike come from different tables or passages of the source.

Legend:
S. aureus ATCC 25923 [1] = test: Antibacterial activity, pre-exposure (planktonic cells and biofilm formation); format: cell-based, Staphylococcus aureus; conditions: for MIC / inhibition at 5 µM / inhibition at 10 µM / inhibition at 15 µM / inhibition at 25 µM: Staphylococcus aureus, ATCC25923; for inhibition at 5 µM / inhibition at 10 µM / inhibition at 15 µM / inhibition at 25 µM / Average inhibition %, biofilms viability / Average inhibition %, planktonic cells viability: pre-exposure, ± SD
How it was run: (§1)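 Pre-exposure format: compounds added with bacteria, 18 h aerobic at 37 °C with shaking. Planktonic growth read by OD and resazurin (20 μM final) fluorescence; biofilms by resazurin viability then crystal violet biomass (A595). Resazurin incubation time/temperature varied by species.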

S. aureus ATCC 25923 [2] = test: Antibacterial activity, post-exposure on preformed 18-h-old biofilms; format: cell-based, Staphylococcus aureus; conditions: ± SD; for inhibition at 25 µM / inhibition at 50 µM / inhibition at 100 µM / inhibition at 200 µM: Staphylococcus aureus; for inhibition at 25 µM: ATCC25923, 25 µM; for inhibition at 50 µM: ATCC25923, 50 µM; for inhibition at 100 µM: ATCC25923, 100 µM; for inhibition at 200 µM: ATCC25923, 200 µM
How it was run: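 Biofilms grown 18 h without compound, medium then replaced and compound added for a further 24 h. Planktonic OD and resazurin (20 μM final) fluorescence (ex 560/em 590 nm) read; washed biofilms stained with 20 μM resazurin 30 min at 37 °C, then ethanol-fixed and crystal violet-stained, absorbance 595 nm.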

A. baumannii NCTC 13423 = test: Antibacterial activity, pre-exposure; format: cell-based, Acinetobacter baumannii; conditions: for Average inhibition %, biofilms viability / Average inhibition %, planktonic cells viability / inhibition at 10 µM / inhibition at 15 µM / inhibition at 25 µM / inhibition at 50 µM: A. baumannii NCTC 13423, pre-exposure, ± SD; for inhibition at 10 µM / inhibition at 15 µM / inhibition at 25 µM / inhibition at 50 µM / MIC: Acinetobacter baumannii, NCTC13423
How it was run: as §1

P. aeruginosa ATCC 9027 = test: Antibacterial activity, pre-exposure; format: cell-based, Pseudomonas aeruginosa; conditions: for Average inhibition %, biofilms viability / Average inhibition %, planktonic cells viability / inhibition at 50 µM / inhibition at 100 µM / inhibition at 150 µM / inhibition at 200 µM: P. aeruginosa ATCC 9027, pre-exposure, ± SD; for inhibition at 50 µM / inhibition at 100 µM / inhibition at 150 µM / inhibition at 200 µM: Pseudomonas aeruginosa, ATCC9027
How it was run: as §1

[3] = 10 µM, read-out: Average inhibition %, biofilms biomass
[4] = 10 µM, read-out: Average inhibition %, planktonic cells turbidity
[5] = 15 µM, read-out: Average inhibition %, biofilms biomass
[6] = 15 µM, read-out: Average inhibition %, planktonic cells turbidity
[7] = 25 µM, read-out: Average inhibition %, biofilms biomass
[8] = 25 µM, read-out: Average inhibition %, planktonic cells turbidity
[9] = read-out: Average inhibition %, biofilms biomass
[10] = read-out: Average inhibition %, planktonic cells turbidity
[11] = 50 µM, read-out: Average inhibition %, biofilms biomass
[12] = 50 µM, read-out: Average inhibition %, planktonic cells turbidity

MIC (S. aureus ATCC 25923 [1]; lowest concentration with no visible growth (>90% inhibition of turbidity and viability of planktonic cells), 18 h, read-out: MIC S. aureus ATCC 25923): 10 µM (≈ 3.73 µg/mL)
MIC (S. aureus ATCC 25923 [1]; read-out: MIC (S. aureus)): 10 µM (≈ 3.73 µg/mL)
MIC (A. baumannii NCTC 13423; pre-exposure, Inactive = no activity up to 50 μM, > = some inhibition but no MIC reached, read-out: MIC A. baumannii NCTC 13423): > 50 µM
MIC (A. baumannii NCTC 13423; supplementary molecular formula strings sheet, read-out: MIC (A. baumannii)): > 50 µM
MIC P. aeruginosa ATCC 9027 (P. aeruginosa ATCC 9027; pre-exposure, Inactive = no activity up to 200 μM, > = some inhibition but no MIC reached): Inactive
Compound: CCCCCCCCCCc1ccc2nc(CC(N)(CO)CO)ccc2c1 [Compound 83, 2-Amino-2-[(6-decylquinolin-2-yl)methyl]propane-1,3-diol]
inhibition at 5 µM (S. aureus ATCC 25923 [1]; 5 µM, read-out: Average inhibition %, biofilms biomass): 37.3 ± 7.9%
inhibition at 5 µM (S. aureus ATCC 25923 [1]; 5 µM, read-out: Average inhibition %, planktonic cells turbidity): 37.9 ± 5.1%
inhibition at 10 µM (S. aureus ATCC 25923 [1]; [3]): 97.3 ± 0.8%
inhibition at 10 µM (S. aureus ATCC 25923 [1]; [4]): 99.5 ± 0.2%
inhibition at 15 µM (S. aureus ATCC 25923 [1]; [5]): 93.9 ± 1.4%
inhibition at 15 µM (S. aureus ATCC 25923 [1]; [6]): 99.4 ± 0.1%
inhibition at 25 µM (S. aureus ATCC 25923 [1]; [7]): 89.4 ± 1.4%
inhibition at 25 µM (S. aureus ATCC 25923 [1]; [8]): 99 ± 0.2%
Average inhibition %, biofilms viability (S. aureus ATCC 25923 [1]; 5 µM): 34.6 ± 5.8%
Average inhibition %, planktonic cells viability (S. aureus ATCC 25923 [1]; 5 µM): 6.9 ± 10.7%
Average inhibition %, biofilms viability (S. aureus ATCC 25923 [1]; 10 µM): 99.6 ± 0.4%
Average inhibition %, planktonic cells viability (S. aureus ATCC 25923 [1]; 10 µM): 99.6 ± 0%
Average inhibition %, biofilms viability (S. aureus ATCC 25923 [1]; 15 µM): 99.8 ± 0.6%
Average inhibition %, planktonic cells viability (S. aureus ATCC 25923 [1]; 15 µM): 99.6 ± 0%
Average inhibition %, biofilms viability (S. aureus ATCC 25923 [1]; 25 µM): 99.6 ± 0.4%
Average inhibition %, planktonic cells viability (S. aureus ATCC 25923 [1]; 25 µM): 99.7 ± 0%
Average inhibition %, biofilms viability (S. aureus ATCC 25923 [2]; 25 µM): 16.8 ± 17.2%
Average inhibition %, planktonic cells viability (S. aureus ATCC 25923 [2]; 25 µM): 14.1 ± 20.9%
Average inhibition %, biofilms viability (S. aureus ATCC 25923 [2]; 50 µM): 34.4 ± 15.3%
Average inhibition %, planktonic cells viability (S. aureus ATCC 25923 [2]; 50 µM): 22.7 ± 19.5%
Average inhibition %, biofilms viability (S. aureus ATCC 25923 [2]; 100 µM): 56.6 ± 18.2%
Average inhibition %, planktonic cells viability (S. aureus ATCC 25923 [2]; 100 µM): 80.3 ± 17.9%
Average inhibition %, biofilms viability (S. aureus ATCC 25923 [2]; 200 µM): 58.6 ± 19.5%
Average inhibition %, planktonic cells viability (S. aureus ATCC 25923 [2]; 200 µM): 88.3 ± 12.1%
inhibition at 25 µM (S. aureus ATCC 25923 [2]; [9]): 31.7 ± 20.9%
inhibition at 25 µM (S. aureus ATCC 25923 [2]; [10]): 27.1 ± 19.8%
inhibition at 50 µM (S. aureus ATCC 25923 [2]; [9]): 50.3 ± 6.4%
inhibition at 50 µM (S. aureus ATCC 25923 [2]; [10]): 28.3 ± 13.2%
inhibition at 100 µM (S. aureus ATCC 25923 [2]; [9]): 71.3 ± 10.2%
inhibition at 100 µM (S. aureus ATCC 25923 [2]; [10]): 64.4 ± 14%
inhibition at 200 µM (S. aureus ATCC 25923 [2]; [9]): 71.5 ± 5.8%
inhibition at 200 µM (S. aureus ATCC 25923 [2]; [10]): 65.3 ± 5.8%
Average inhibition %, biofilms viability (A. baumannii NCTC 13423; 10 µM): 0.7 ± 1.2%
Average inhibition %, planktonic cells viability (A. baumannii NCTC 13423; 10 µM): 8 ± 5.8%
Average inhibition %, biofilms viability (A. baumannii NCTC 13423; 15 µM): 1.2 ± 2.2%
Average inhibition %, planktonic cells viability (A. baumannii NCTC 13423; 15 µM): 7.2 ± 6.6%
Average inhibition %, biofilms viability (A. baumannii NCTC 13423; 25 µM): 5.6 ± 6.6%
Average inhibition %, planktonic cells viability (A. baumannii NCTC 13423; 25 µM): 3.1 ± 3.1%
Average inhibition %, biofilms viability (A. baumannii NCTC 13423; 50 µM): 68.9 ± 2.6%
Average inhibition %, planktonic cells viability (A. baumannii NCTC 13423; 50 µM): 95.2 ± 1.7%
inhibition at 10 µM (A. baumannii NCTC 13423; [3]): 6.4 ± 9.4%
inhibition at 10 µM (A. baumannii NCTC 13423; [4]): 0%
inhibition at 15 µM (A. baumannii NCTC 13423; [5]): 0%
inhibition at 15 µM (A. baumannii NCTC 13423; [6]): 0%
inhibition at 25 µM (A. baumannii NCTC 13423; [7]): 0%
inhibition at 25 µM (A. baumannii NCTC 13423; [8]): 11.8 ± 12.4%
inhibition at 50 µM (A. baumannii NCTC 13423; [11]): 10.4 ± 10.2%
inhibition at 50 µM (A. baumannii NCTC 13423; [12]): 88.3 ± 1.5%
Average inhibition %, biofilms viability (P. aeruginosa ATCC 9027; 50 µM): 12.2 ± 21.1%
Average inhibition %, planktonic cells viability (P. aeruginosa ATCC 9027; 50 µM): 10.5 ± 6.5%
Average inhibition %, biofilms viability (P. aeruginosa ATCC 9027; 100 µM): 0.5 ± 0.9%
Average inhibition %, planktonic cells viability (P. aeruginosa ATCC 9027; 100 µM): 14.8 ± 0.4%
Average inhibition %, biofilms viability (P. aeruginosa ATCC 9027; 150 µM): 2.6 ± 3.8%
Average inhibition %, planktonic cells viability (P. aeruginosa ATCC 9027; 150 µM): 20.2 ± 15%
Average inhibition %, biofilms viability (P. aeruginosa ATCC 9027; 200 µM): 1.1 ± 1%
Average inhibition %, planktonic cells viability (P. aeruginosa ATCC 9027; 200 µM): 16.3 ± 15.7%
inhibition at 50 µM (P. aeruginosa ATCC 9027; [11]): 6.4 ± 11.1%
inhibition at 50 µM (P. aeruginosa ATCC 9027; [12]): 35.2 ± 3%
inhibition at 100 µM (P. aeruginosa ATCC 9027; 100 µM, read-out: Average inhibition %, biofilms biomass): 2.1 ± 2.3%
inhibition at 100 µM (P. aeruginosa ATCC 9027; 100 µM, read-out: Average inhibition %, planktonic cells turbidity): 38.6 ± 10.1%
inhibition at 150 µM (P. aeruginosa ATCC 9027; 150 µM, read-out: Average inhibition %, biofilms biomass): 1.3 ± 2.3%
inhibition at 150 µM (P. aeruginosa ATCC 9027; 150 µM, read-out: Average inhibition %, planktonic cells turbidity): 34.8 ± 16.4%
inhibition at 200 µM (P. aeruginosa ATCC 9027; 200 µM, read-out: Average inhibition %, biofilms biomass): 3.7 ± 4.7%
inhibition at 200 µM (P. aeruginosa ATCC 9027; 200 µM, read-out: Average inhibition %, planktonic cells turbidity): 33.2 ± 7.3%
